Assay results taken from PubChem BioAssay (NCI).
Where “and” joins values, the source holds several entries; their conditions need not be identical. Equal entries are not always repeated.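 Compound exposure: 48 hours, 5 concentrations, 96-well plates. GI50 is the concentration that inhibits growth by half. At the TGI there is no net growth.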

Key:
Assay in all cases: NCI anticancer screen, dose series, 48 h
SK-OV-3 ovarian = tested on: SK-OV-3 ovarian
SNB-19 CNS = tested on: SNB-19 CNS
KM12 colon = tested on: KM12 colon
OVCAR-8 ovarian = tested on: OVCAR-8 ovarian
EKVX NSCLC = tested on: EKVX NSCLC
U251 CNS = tested on: U251 CNS
A549 NSCLC = tested on: A549 NSCLC
HCT-15 colon = tested on: HCT-15 colon
HT29 colon = tested on: HT29 colon
SN12C renal = tested on: SN12C renal
MALME-3M melanoma = tested on: MALME-3M melanoma
NCI-H23 lung = tested on: NCI-H23 lung
MDA-MB-435 = tested on: MDA-MB-435
IGROV1 ovarian = tested on: IGROV1 ovarian
NCI/ADR-RES ovarian = tested on: NCI/ADR-RES ovarian
K-562 leukemia = tested on: K-562 leukemia
HS 578T breast = tested on: HS 578T breast
BT-549 breast = tested on: BT-549 breast
MDA-MB-231 breast = tested on: MDA-MB-231 breast
SR leukemia = tested on: SR leukemia
HOP-62 NSCLC = tested on: HOP-62 NSCLC
MOLT-4 leukemia = tested on: MOLT-4 leukemia
PC-3 prostate = tested on: PC-3 prostate
MCF7 breast = tested on: MCF7 breast
OVCAR-3 ovarian = tested on: OVCAR-3 ovarian
SF-268 CNS = tested on: SF-268 CNS
T-47D breast = tested on: T-47D breast
SK-MEL-28 melanoma = tested on: SK-MEL-28 melanoma
OVCAR-5 ovarian = tested on: OVCAR-5 ovarian
SF-539 CNS = tested on: SF-539 CNS
A498 renal = tested on: A498 renal
COLO 205 colon = tested on: COLO 205 colon
HL-60(TB) leukemia = tested on: HL-60(TB) leukemia
OVCAR-4 ovarian = tested on: OVCAR-4 ovarian
NCI-H460 lung = tested on: NCI-H460 lung
SK-MEL-5 melanoma = tested on: SK-MEL-5 melanoma
RXF 393 renal = tested on: RXF 393 renal
UACC-257 melanoma = tested on: UACC-257 melanoma
UO-31 renal = tested on: UO-31 renal
HCC-2998 colon = tested on: HCC-2998 colon
MDA-N = tested on: MDA-N
M14 melanoma = tested on: M14 melanoma
CCRF-CEM leukemia = tested on: CCRF-CEM leukemia
SK-MEL-2 melanoma = tested on: SK-MEL-2 melanoma
NCI-H226 lung = tested on: NCI-H226 lung
SF-295 CNS = tested on: SF-295 CNS
786-0 renal = tested on: 786-0 renal
DU-145 prostate = tested on: DU-145 prostate
SNB-75 CNS = tested on: SNB-75 CNS
SW-620 colon = tested on: SW-620 colon
CAKI-1 renal = tested on: CAKI-1 renal
HCT-116 colon = tested on: HCT-116 colon
RPMI-8226 leukemia = tested on: RPMI-8226 leukemia
TK-10 renal = tested on: TK-10 renal
UACC-62 melanoma = tested on: UACC-62 melanoma
ACHN renal = tested on: ACHN renal
LOX IMVI melanoma = tested on: LOX IMVI melanoma
NCI-H522 lung = tested on: NCI-H522 lung
HOP-92 NSCLC = tested on: HOP-92 NSCLC

Cc1nn(-c2ccccc2)c(C)c1/C=N/N=C1\SCC(=O)N1c1ccccc1
TGI (SK-OV-3 ovarian): 83 µM | TGI (SNB-19 CNS): > 100 µM | TGI (KM12 colon): 94.7 µM | TGI (OVCAR-8 ovarian): 55.1 µM | TGI (EKVX NSCLC): 47.1 µM | TGI (U251 CNS): 69.3 µM | TGI (A549 NSCLC): 99.6 µM | TGI (HCT-15 colon): 63.6 µM | TGI (HT29 colon): 73.9 µM | TGI (SN12C renal): > 100 µM | TGI (MALME-3M melanoma): 57.9 µM | TGI (NCI-H23 lung): 86.4 µM | TGI (MDA-MB-435): 55.3 µM | TGI (IGROV1 ovarian): 93.9 µM | TGI (NCI/ADR-RES ovarian): 54.4 µM | TGI (K-562 leukemia): > 100 µM | TGI (HS 578T breast): > 100 µM | TGI (BT-549 breast): 43 µM | TGI (MDA-MB-231 breast): > 100 µM | TGI (SR leukemia): > 100 µM | TGI (HOP-62 NSCLC): 86.8 µM | TGI (MOLT-4 leukemia): > 100 µM | TGI (PC-3 prostate): 51.5 µM | TGI (MCF7 breast): > 100 µM | TGI (OVCAR-3 ovarian): 78.3 µM | TGI (SF-268 CNS): > 100 µM | TGI (T-47D breast): > 100 µM | TGI (SK-MEL-28 melanoma): 67.9 µM | TGI (OVCAR-5 ovarian): > 100 µM | TGI (SF-539 CNS): 67.2 µM | TGI (A498 renal): 78.3 µM | TGI (COLO 205 colon): 39.9 µM | TGI (HL-60(TB) leukemia): 82.2 µM | TGI (OVCAR-4 ovarian): 41.7 µM | TGI (NCI-H460 lung): 60.2 µM | TGI (SK-MEL-5 melanoma): 30.3 µM | TGI (RXF 393 renal): 42.7 µM | TGI (UACC-257 melanoma): 88.2 µM | TGI (UO-31 renal): 51.1 µM | TGI (HCC-2998 colon): 52.8 µM | TGI (MDA-N): 59.6 µM | TGI (M14 melanoma): 60.7 µM | TGI (CCRF-CEM leukemia): > 100 µM | TGI (SK-MEL-2 melanoma): 58.4 µM | TGI (NCI-H226 lung): 66.5 µM | TGI (SF-295 CNS): 53.5 µM | TGI (786-0 renal): 37.7 µM | TGI (DU-145 prostate): > 100 µM | TGI (SNB-75 CNS): 55 µM | TGI (SW-620 colon): > 100 µM | TGI (CAKI-1 renal): 44.9 µM | TGI (HCT-116 colon): 36.5 µM | TGI (RPMI-8226 leukemia): 35.3 µM | TGI (TK-10 renal): 93.4 µM | TGI (UACC-62 melanoma): 68.3 µM | TGI (ACHN renal): 34.4 µM | TGI (LOX IMVI melanoma): 48.1 µM

O=C1CSC(c2ccc([N+](=O)[O-])cc2)N1c1ccc(-n2c(-c3ccccc3)nc3ccccc3c2=O)cc1 (stereo unspecified)
TGI (SK-OV-3 ovarian): > 100 µM | TGI (SNB-19 CNS): > 100 µM | TGI (KM12 colon): > 100 µM | TGI (OVCAR-8 ovarian): > 100 µM | TGI (EKVX NSCLC): > 100 µM | TGI (U251 CNS): > 100 µM | TGI (A549 NSCLC): > 100 µM | TGI (HCT-15 colon): > 100 µM | TGI (HT29 colon): > 100 µM | TGI (SN12C renal): > 100 µM | TGI (MALME-3M melanoma): > 100 µM | TGI (NCI-H23 lung): > 100 µM | TGI (MDA-MB-435): > 100 µM | TGI (IGROV1 ovarian): > 100 µM | TGI (NCI/ADR-RES ovarian): > 100 µM | TGI (K-562 leukemia): > 100 µM | TGI (NCI-H522 lung): > 100 µM | TGI (HS 578T breast): > 100 µM | TGI (BT-549 breast): > 100 µM | TGI (MDA-MB-231 breast): > 100 µM | TGI (SR leukemia): > 100 µM | TGI (HOP-62 NSCLC): > 100 µM | TGI (MOLT-4 leukemia): > 100 µM | TGI (PC-3 prostate): > 100 µM | TGI (MCF7 breast): > 100 µM | TGI (OVCAR-3 ovarian): > 100 µM | TGI (SF-268 CNS): > 100 µM | TGI (T-47D breast): > 100 µM | TGI (SK-MEL-28 melanoma): > 100 µM | TGI (SF-539 CNS): > 100 µM | TGI (A498 renal): > 100 µM | TGI (COLO 205 colon): > 100 µM | TGI (HL-60(TB) leukemia): > 100 µM | TGI (OVCAR-4 ovarian): 95.7 µM | TGI (NCI-H460 lung): > 100 µM | TGI (SK-MEL-5 melanoma): > 100 µM | TGI (UACC-257 melanoma): > 100 µM | TGI (UO-31 renal): 29.3 µM | TGI (HCC-2998 colon): > 100 µM | TGI (MDA-N): > 100 µM | TGI (M14 melanoma): > 100 µM | TGI (CCRF-CEM leukemia): > 100 µM | TGI (SK-MEL-2 melanoma): > 100 µM | TGI (NCI-H226 lung): > 100 µM | TGI (SF-295 CNS): > 100 µM | TGI (786-0 renal): > 100 µM | TGI (DU-145 prostate): > 100 µM | TGI (SW-620 colon): > 100 µM | TGI (CAKI-1 renal): > 100 µM | TGI (HCT-116 colon): > 100 µM | TGI (RPMI-8226 leukemia): > 100 µM | TGI (TK-10 renal): > 100 µM | TGI (UACC-62 melanoma): > 100 µM | TGI (ACHN renal): > 100 µM | TGI (LOX IMVI melanoma): > 100 µM

O=c1cc(-c2ccccc2F)[nH]c2ccc(N3CCCC3)cc12
GI50 (SK-OV-3 ovarian): < 0.001 µM | GI50 (SNB-19 CNS): < 0.001 µM | TGI (SNB-19 CNS): 0.0725 µM | GI50 (KM12 colon): < 0.001 µM | GI50 (OVCAR-8 ovarian): < 0.001 µM | GI50 (EKVX NSCLC): > 100 µM | GI50 (U251 CNS): < 0.001 µM | GI50 (A549 NSCLC): < 0.001 µM | TGI (A549 NSCLC): > 100 µM | GI50 (HCT-15 colon): < 0.001 µM | GI50 (HT29 colon): < 0.001 µM | GI50 (SN12C renal): < 0.001 µM | TGI (SN12C renal): > 100 µM | TGI (MALME-3M melanoma): > 100 µM | GI50 (NCI-H23 lung): 0.199 µM | GI50 (IGROV1 ovarian): < 0.001 µM | GI50 (NCI/ADR-RES ovarian): < 0.001 µM | GI50 (K-562 leukemia): < 0.001 µM | TGI (K-562 leukemia): > 100 µM | GI50 (NCI-H522 lung): < 0.001 µM | TGI (HOP-92 NSCLC): > 100 µM | GI50 (HS 578T breast): < 0.001 µM | TGI (BT-549 breast): > 100 µM | GI50 (MDA-MB-231 breast): > 100 µM | TGI (MDA-MB-231 breast): > 100 µM | GI50 (SR leukemia): < 0.001 µM | GI50 (HOP-62 NSCLC): < 0.001 µM | TGI (HOP-62 NSCLC): > 100 µM | GI50 (MOLT-4 leukemia): < 0.001 µM | TGI (MOLT-4 leukemia): > 100 µM | TGI (PC-3 prostate): > 100 µM | GI50 (MCF7 breast): 0.488 µM | TGI (MCF7 breast): > 100 µM | GI50 (SF-268 CNS): < 0.001 µM | GI50 (T-47D breast): > 100 µM | TGI (T-47D breast): > 100 µM | GI50 (SK-MEL-28 melanoma): 82.3 µM | TGI (SK-MEL-28 melanoma): > 100 µM | GI50 (OVCAR-5 ovarian): 2.53 µM | TGI (OVCAR-5 ovarian): > 100 µM | TGI (SF-539 CNS): 0.0134 µM | GI50 (A498 renal): 7.32 µM | TGI (A498 renal): > 100 µM | GI50 (COLO 205 colon): < 0.001 µM | GI50 (HL-60(TB) leukemia): < 0.001 µM | TGI (OVCAR-4 ovarian): 55.3 µM | GI50 (NCI-H460 lung): < 0.001 µM | GI50 (SK-MEL-5 melanoma): < 0.001 µM | GI50 (RXF 393 renal): < 0.001 µM | TGI (RXF 393 renal): > 100 µM | TGI (UACC-257 melanoma): > 100 µM | GI50 (HCC-2998 colon): 0.0204 µM | TGI (HCC-2998 colon): 0.455 µM and 0.0546 µM | GI50 (MDA-N): < 0.001 µM | GI50 (M14 melanoma): < 0.001 µM | TGI (M14 melanoma): > 100 µM | GI50 (CCRF-CEM leukemia): < 0.001 µM | TGI (CCRF-CEM leukemia): > 100 µM | TGI (SK-MEL-2 melanoma): > 100 µM | GI50 (NCI-H226 lung): < 0.001 µM | TGI (NCI-H226 lung): 0.0215 µM | GI50 (786-0 renal): < 0.001 µM | TGI (786-0 renal): > 100 µM | GI50 (DU-145 prostate): < 0.001 µM | TGI (SNB-75 CNS): > 100 µM | TGI (SW-620 colon): > 100 µM | GI50 (RPMI-8226 leukemia): < 0.001 µM | GI50 (TK-10 renal): 74.9 µM | TGI (TK-10 renal): > 100 µM | GI50 (UACC-62 melanoma): < 0.001 µM | TGI (UACC-62 melanoma): > 100 µM | TGI (ACHN renal): > 100 µM | GI50 (LOX IMVI melanoma): < 0.001 µM | TGI (LOX IMVI melanoma): > 100 µM
